Laboratory results taken from patent publication US20250281467A1, “MODULATORS OF INTRACELLULAR CHLORIDE CONCENTRATION FOR USE IN THE TREATMENT OF COGNITIVE DECLINE” (FONDAZIONE ISTITUTO ITALIANO DI TECNOLOGIA, priority 2022, published 2025).
Read-outs that look alike come from different tables or passages of the source.

Legend:
KCC2 = biological target: T1, KCC2 (Homo sapiens, UniProt Q9H2X9); assay: inhibitory activity measured in vitro on KCC2; format: biochemical
T1 sequence (Q9H2X9 1-1139): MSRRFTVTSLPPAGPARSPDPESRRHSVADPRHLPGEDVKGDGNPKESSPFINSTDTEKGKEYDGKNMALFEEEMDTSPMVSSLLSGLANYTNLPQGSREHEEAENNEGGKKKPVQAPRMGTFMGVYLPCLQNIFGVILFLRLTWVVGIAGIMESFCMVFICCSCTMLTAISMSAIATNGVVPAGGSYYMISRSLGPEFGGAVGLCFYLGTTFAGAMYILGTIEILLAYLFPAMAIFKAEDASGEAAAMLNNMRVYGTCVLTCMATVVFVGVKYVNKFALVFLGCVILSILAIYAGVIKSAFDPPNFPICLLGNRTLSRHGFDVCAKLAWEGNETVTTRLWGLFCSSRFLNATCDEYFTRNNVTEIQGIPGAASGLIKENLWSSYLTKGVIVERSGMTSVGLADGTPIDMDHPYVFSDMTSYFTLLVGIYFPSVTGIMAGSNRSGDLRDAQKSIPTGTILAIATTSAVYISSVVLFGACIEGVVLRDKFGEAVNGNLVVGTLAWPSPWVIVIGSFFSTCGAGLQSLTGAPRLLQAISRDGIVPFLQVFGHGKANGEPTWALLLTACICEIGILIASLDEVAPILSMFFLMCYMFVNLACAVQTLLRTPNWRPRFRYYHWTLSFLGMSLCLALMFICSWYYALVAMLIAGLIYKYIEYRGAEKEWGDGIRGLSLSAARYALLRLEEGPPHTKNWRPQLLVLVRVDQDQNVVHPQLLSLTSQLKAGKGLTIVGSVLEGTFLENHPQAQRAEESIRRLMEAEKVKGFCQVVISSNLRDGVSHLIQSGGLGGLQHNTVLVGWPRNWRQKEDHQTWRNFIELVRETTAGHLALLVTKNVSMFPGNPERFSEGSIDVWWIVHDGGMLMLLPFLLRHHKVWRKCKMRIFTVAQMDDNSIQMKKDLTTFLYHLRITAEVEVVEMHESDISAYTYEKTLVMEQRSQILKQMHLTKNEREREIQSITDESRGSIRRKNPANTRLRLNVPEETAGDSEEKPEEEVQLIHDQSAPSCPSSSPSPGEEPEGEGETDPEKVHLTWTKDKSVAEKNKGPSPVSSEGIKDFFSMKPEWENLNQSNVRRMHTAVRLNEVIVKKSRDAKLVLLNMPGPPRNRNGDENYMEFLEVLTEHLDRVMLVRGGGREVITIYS

elderly mice = assay: novel object recognition (NOR) test in elderly mice; format: in vivo; settings: 1 mg/kg i.p., versus vehicle
Text: FIG. 3 illustrates the evaluation of the efficacy of compound 32 (KCC2 inhibitor) to restore impaired memory in elderly mice. a) Quantification of the discrimination index of the NOR test in young (n=13) and elderly (n=10) mice (two tailed t-test, ** P<0.01). b) Quantification of the discrimination index of the NOR test in mice treated with vehicle (young, n=12, elderly, n=9) or compound 32 (young, n=10, elderly, n=6) (two-way ANOVA, Tukey post hoc test, ** P<0.01, ** P<0.001).
To evaluate memory capacity in the elderly mice, the novel object recognition (NOR) test was conducted. This test evaluates the long-term object recognition memory by measuring the capacity of the mice to recognize a novel object compared to familiar objects. […] Subsequently, to test the ability of the non-selective KCC2 inhibitor, Compound 32, to restore poor memory, the NOR test was conducted in the presence of the drug. The mice were treated with compound 32 (1 mg/kg i.p.) or with the vehicle.

[1] = test system: mice C57BL/6J aged >24 months; assay: open field test after diazepam in elderly and young mice; format: in vivo; settings: elderly mice (>24 months), diazepam 2 mg/kg, compared to elderly mice treated with vehicle or young mice treated with diazepam
Text: FIG. 2 illustrates the evaluation of the effect of benzodiazepines in elderly mice which is indicative of a potentiated GABAergic transmission. a) Quantification of the immobility time during the open field test of mice treated with vehicle (young, n=7, elderly, n=6) or diazepam (young, n=7, elderly, n=7) (two-way ANOVA, Tukey post hoc test, *** P<0.001). b) Quantification of the distance travelled during the open field test by mice treated with vehicle (young, n=7, elderly, n=6) or diazepam (young, n=7, elderly, n=7) (two-way ANOVA, Tukey post hoc test, ** P<0.01, *** P<0.001).
In fact, benzodiazepines are positive allosteric modulators of GABAAR. Benzodiazepines are commonly used as anxiolytic drugs, but can produce anxiogenic or highly sedative effects depending on the polarity of GABAergic transmission. To test the reaction of elderly mice to benzodiazepines, mice C57BL/6J aged >24 months and 2-month old controls C57BL/6J were treated with diazepam (2 mg/kg in saline solution) or vehicle (2% DMSO in saline solution). The open field test was then carried out to evaluate locomotor activity and the level of anxiety of the mice tested. […] This is indicative of an over-sedation reaction of the diazepam in the elderly mice, which may reflect the presence of hyper-inhibitory GABAergic transmission. This evidence is in accordance with the up-regulation of KCC2 (FIG. 1b).

[2] = in vitro on KCC2, read-out: IC50

| SMILES | IC50 (KCC2; [2]) [µM] | other results |
| --- | --- | --- |
| CC(=O)N1CCCC1(Cc1ccc(F)cc1C(F)(F)F)C(=O)OCc1ccccc1 (stereo not shown) [Compound 40] | 4 |  |
| CC(=O)N1CCCC1(Cc1ccccc1C#N)C(=O)OCc1ccccc1 (stereo not shown) [Compound 35] | 5 |  |
| CCC(=O)N1CCCC1(Cc1ccccc1)C(=O)OCc1ccccc1 (stereo not shown) [Compound 60] | 1.2 |  |
| CC(=O)N1CCCC1(Cc1ccc(F)cc1)C(=O)CCc1ccc(F)cc1 (stereo not shown) [Compound 64] | 0.2 |  |
| O=C(c1ccccc1)N1CCCC1(Cc1ccccc1)C(=O)OCc1ccccc1 (stereo not shown) [Compound 62] | 4 |  |
| CS(=O)(=O)N1CCCC1(Cc1ccccc1)C(=O)OCc1ccccc1 (stereo not shown) [Compound 57] | 1.6 |  |
| CC(=O)N1c2ccccc2CC1(Cc1ccccc1)C(=O)OCc1ccccc1 (stereo not shown) [Compound 65] | 0.2 |  |
| CC(=O)N1CCCC1(Cc1ccc(S(C)(=O)=O)cc1)C(=O)OCc1ccccc1 (stereo not shown) [Compound 32] | 1 | object recognition memory (discrimination index of the NOR test) (elderly mice): significantly restored |
| COc1ccc(CC2(C(=O)OCc3ccccc3)CCCN2C(C)=O)cc1C(F)(F)F (stereo not shown) [Compound 39] | 0.05 |  |
| CC(=O)N1CCCC1(Cc1ccc(F)c(C(F)(F)F)c1)C(=O)OCc1ccccc1 (stereo not shown) [Compound 38] | 0.06 |  |
| CC(=O)N1CCCC1(Cc1ccccc1)C(=O)OCc1ccccc1Cl (stereo not shown) [Compound 49] | 6 |  |
| CC(=O)N1CCCC1(Cc1ccccc1)C(=O)O (stereo not shown) [Compound 43] | > 100 |  |
| CC(=O)N1CCCC1(Cc1ccccc1)C(=O)OCc1ccc(C)cc1 (stereo not shown) [Compound 52] | 0.79 |  |
| CC(=O)N1CCCC1(Cc1cccc(C(F)(F)F)c1)C(=O)OCc1ccccc1 (stereo not shown) [Compound 37] | 0.08 |  |
| O=C1CCCC2CCC(Cc3ccccc3)(C(=O)OCc3ccccc3)N12 (stereo not shown) [Compound 69] | 1 |  |
| CC(=O)N1CCCC1(Cc1ccccc1)C(=O)NCc1ccccc1 (stereo not shown) [Compound 41] | 100 |  |
| CC(=O)N1CCCC1(Cc1ccccc1)C(=O)OCc1ccccc1 (stereo not shown) [Compound 21] | 0.79 |  |
| CC(=O)N1CCCC1(Cc1ccccc1)C(=O)OCCc1ccccc1 (stereo not shown) [Compound 46] | 10 |  |
| CC(=O)N1CCCC1(CCc1ccccc1)C(=O)OCc1ccccc1 (stereo not shown) [Compound 22] | 8 |  |
| O=C(C1CC1)N1CCCC1(Cc1ccccc1)C(=O)OCc1ccccc1 (stereo not shown) [Compound 61] | 0.32 |  |
| CC(=O)N1CCCC1(Cc1ccccc1)C(=O)OCc1ccc(C(F)(F)F)cc1 (stereo not shown) [Compound 53] | 5 |  |
| CC(=O)N1CCCC1(Cc1ccccc1)C(=O)OCc1ccc(Cl)cc1 (stereo not shown) [Compound 51] | 1.3 |  |
| CC(=O)N1CCCC1(Cc1ccccc1)C(=O)CCc1ccccc1 (stereo not shown) [Compound 63] | 0.3 |  |
| CC(=O)N1CCCC1(Cc1ccsc1)C(=O)OCc1ccccc1 (stereo not shown) [Compound 26] | 0.79 |  |
| CC(=O)N1CCCC1(CC1CCCCC1)C(=O)OCc1ccccc1 (stereo not shown) [Compound 24] |  | IC50 (KCC2; IC50, in vitro on KCC2): 4 µM |

| SMILES | IC50 (KCC2; [2]) [µM] | other results |
| --- | --- | --- |
| COC(=O)C1(Cc2ccccc2)CCCN1C(C)=O (stereo not shown) [Compound 44] | > 100 |  |
| CC(=O)N1CCCC1(Cc1ccccc1)C(=O)OC(C)c1ccccc1 (stereo not shown) [Compound 45] | 4 |  |
| CC(=O)N1CCCC1(Cc1cccc(C#N)c1)C(=O)OCc1ccccc1 (stereo not shown) [Compound 34] | 0.32 |  |
| CC(=O)N1CCCC1(Cc1ccccc1)C(=O)OCC1CCCCC1 (stereo not shown) [Compound 47] | 63 |  |
| CC(=O)N1CCCC1(Cc1ccccc1)C1=N[C@H](c2ccccc2)CO1 (stereo partly shown) [Compound 67] | 1.3 |  |
| COc1ccc(CC2(C(=O)OCc3ccccc3)CCCN2C(C)=O)cc1 (stereo not shown) [Compound 28] | 0.4 |  |
| CC(=O)N1CCCC1(Cc1ccccc1)C(=O)OCc1cccc(Cl)c1 (stereo not shown) [Compound 50] | 2.5 |  |
| CCC1(C(=O)OCc2ccccc2)CCCN1C(C)=O (stereo not shown) [Compound 23] | 2.3 |  |
| CCNC(=O)N1CCCC1(Cc1ccccc1)C(=O)OCc1ccccc1 (stereo not shown) [Compound 59] | 2 |  |
| CC(=O)N1CCCC1(Cc1ccccc1)C(=O)OCc1ccc(S(C)(=O)=O)cc1 (stereo not shown) [Compound 54] | > 100 |  |
| O=C(OCc1ccccc1)C1(Cc2ccccc2)CCCN1 (stereo not shown) [Compound 55] | > 100 |  |
| CC(=O)N1CCCC1(Cc1ccc(F)cc1)C(=O)OCc1ccccc1 (stereo not shown) [Compound 30] | 0.2 |  |
| CC(=O)N1CCCC1(Cc1ccc(Cl)cc1)C(=O)OCc1ccccc1 (stereo not shown) [Compound 31] | 0.32 |  |
| CC(=O)N1CCCC1(Cc1ccccc1)C(=O)N(C)Cc1ccccc1 (stereo not shown) [Compound 42] | 32 |  |
| CC(=O)N1CCCC1(Cc1ccc(C#N)cc1)C(=O)OCc1ccccc1 (stereo not shown) [Compound 33] | 0.16 |  |
| CN1C(=O)CN=C(c2ccccc2)c2cc(Cl)ccc21 [diazepam] |  | distance travelled during the open field test [1]: significantly lower; immobility time during the open field test [1]: significantly higher |
| CC(=O)N1CCCC1(Cc1ccccc1)C(=O)OCc1ccncc1 (stereo not shown) [Compound 48] | > 100 |  |
| CC(=O)N1CCCC1(Cc1ccncc1)C(=O)OCc1ccccc1 (stereo not shown) [Compound 25] | 2 |  |
| CC(=O)N1CCCC1(Cc1ccc(C)cc1)C(=O)OCc1ccccc1 (stereo not shown) [Compound 27] | 0.79 |  |
| CC(=O)N1CCCC1(Cc1ccc(C(F)(F)F)cc1)C(=O)OCc1ccccc1 (stereo not shown) [Compound 29] | 0.63 |  |
| CCN1CCCC1(Cc1ccccc1)C(=O)OCc1ccccc1 (stereo not shown) [Compound 56] | > 100 |  |
| CC(=O)N1CCCC1(Cc1cccc(S(C)(=O)=O)c1)C(=O)OCc1ccccc1 (stereo not shown) [Compound 36] | 0.25 |  |
| CC(=O)N1CCCC1(Cc1ccccc1)C(=O)OCc1ccccc1 (stereo not shown) [Compound 66] | 20 |  |
| CC(=O)N1CCCC1(Cc1ccccc1)c1nc(-c2ccccc2)co1 (stereo not shown) [Compound 68] | 12.6 |  |
| COC(=O)N1CCCC1(Cc1ccccc1)C(=O)OCc1ccccc1 (stereo not shown) [Compound 58] | 0.4 |  |
